Results reported in ChEMBL document CHEMBL1140694, “Identification of new functional inhibitors of acid sphingomyelinase using a structure-property-activity relation model” (J Med Chem, 2008).

How the values were obtained:
[1] = Partition coefficient, log P of the compound; type: physicochemical; conditions: octanol/water

Description for physchem: Dissociation constant, pKa of the compound

Row | Compound | pKa (physchem) | logP ([1]; read-out: LogP) | logP [1]
1 | CN1CCC(OC(c2ccccc2)c2ccccc2)CC1 | 8.9 |  | 
2 | O=C1NCN(c2ccccc2)C12CCN(CCCC(c1ccc(F)cc1)c1ccc(F)cc1)CC2 | 8.66 | 5.83 | 
3 | CN[C@H]1CC[C@@H](c2ccc(Cl)c(Cl)c2)c2ccccc21 (single isomer, unassigned) [SERTRALINE] | 9.16 | 4.3 | 
4 | c1ccc(CN(CC2=NCCN2)c2ccccc2)cc1 [ANTAZOLINE] | 10.1 | 4.24 | 
5 | COc1ccc(CCN2CCC(Nc3nc4ccccc4n3Cc3ccc(F)cc3)CC2)cc1 [ASTEMIZOLE] | 8.5 | 5.48 | 
6 | Nc1ncn([C@@H]2O[C@H](CO)[C@@H](O)[C@H]2O)c(=O)n1 [AZACITIDINE] |  | -2.17 | 
7 | CN1[C@@H]2CC[C@H]1C[C@@H](OC(c1ccccc1)c1ccccc1)C2 [BENZTROPINE] | 10 |  | 
8 | CN(Cc1cc(Br)cc(Br)c1N)C1CCCCC1 [BROMHEXINE] | 8.5 |  | 
9 | CCN(CC)CCNC(=O)c1cc(Br)c(N)cc1OC [BROMOPRIDE] | 9.35 |  | 
10 | CN(C)CCCN1c2ccccc2Sc2ccc(Cl)cc21 [CHLORPROMAZINE] |  | 5.19 | 
11 | CN(C)CC/C=C1/c2ccccc2Sc2ccc(Cl)cc21 [CHLORPROTHIXENE] | 8.84 | 5.18 | 
12 | C(=C\c1ccccc1)/CN1CCN(C(c2ccccc2)c2ccccc2)CC1 [CINNARIZINE] | 7.47 |  | 
13 | COc1cc(N)c(Cl)cc1C(=O)NC1CCN(CCCOc2ccc(F)cc2)CC1OC (stereo not given) [CISAPRIDE] | 7.9 |  | 
14 | COc1cc(N)c(Cl)cc1C(=O)NC1CCN(Cc2ccccc2)CC1 [CLEBOPRIDE] | 8.59 | 2.72 | 
15 | CN1CCN(C2=Nc3cc(Cl)ccc3Nc3ccccc32)CC1 [CLOZAPINE] |  | 3.42 | 
16 | C[C@H]1[C@H]2Cc3ccc(O)cc3[C@]1(C)CCN2CC1CC1 [CYCLAZOCINE] | 9.38 |  | 3.31
17 | CN1CCC(=C2c3ccccc3C=Cc3ccccc32)CC1 [CYPROHEPTADINE] | 8.87 |  | 
18 | CCCCOc1cc(C(=O)NCCN(CC)CC)c2ccccc2n1 [DIBUCAINE] | 8.85 |  | 
19 | O=c1[nH]c2ccccc2n1CCCN1CCC(n2c(=O)[nH]c3cc(Cl)ccc32)CC1 [DOMPERIDONE] |  | 4.05 | 
20 | CN(C)CC/C=C1\c2ccccc2COc2ccccc21 [DOXEPIN] |  | 4.01 | 
21 | CCOC(=O)c1cncn1[C@H](C)c1ccccc1 [ETOMIDATE] | 4.5 | 3.05 | 
22 | CC(NCCC(c1ccccc1)c1ccccc1)c1ccccc1 (stereo not given) [FENDILINE] | 9.04 | 4.89 | 
23 | Cc1c(-c2ccccc2)oc2c(C(=O)OCCN3CCCCC3)cccc2c1=O [FLAVOXATE] | 7.3 |  | 
24 | Fc1ccc(C(c2ccc(F)cc2)N2CCN(C/C=C/c3ccccc3)CC2)cc1 [FLUNARIZINE] | 7.71 | 6.42 | 
25 | O=C(CCCN1CCC(O)(c2ccc(Cl)cc2)CC1)c1ccc(F)cc1 [HALOPERIDOL] |  | 3.23 | 

Row | Compound | pKa (physchem) | logP ([1]; read-out: LogP) | logP [1]
26 | COc1ccc2c(c1)[nH]c1c(C)nccc12 [HARMINE] | 7.5 |  | 
27 | CN1CCC(=C2c3ccccc3CC(=O)c3sccc32)CC1 [KETOTIFEN] | 8.24 | 3.56 | 
28 | CNCCCC12CCC(c3ccccc31)c1ccccc12 [MAPROTILINE] |  | 4.5 | 
29 | CNC1(C)C2CCC(C2)C1(C)C (stereo not given) [MECAMYLAMINE] | 11.2 |  | 
30 | CC12CC3CC(C)(C1)CC(N)(C3)C2 [MEMANTINE] | 10.4 |  | 
31 | CC(CN(C)C)CN1c2ccccc2Sc2ccccc21 (stereo not given) [METHYLPROMAZINE] | 9.11 | 4.81 | 
32 | COCC(=O)O[C@]1(CCN(C)CCCc2nc3ccccc3[nH]2)CCc2cc(F)ccc2[C@@H]1C(C)C [MIBEFRADIL] |  |  | 3.86
33 | COc1ccc2c(c1OC)C(=O)O[C@@H]2[C@H]1c2c(cc3c(c2OC)OCO3)CCN1C [NOSCAPINE] | 6.2 |  | 
34 | Cc1ccccc1C(OCCN(C)C)c1ccccc1 (stereo not given) [ORPHENADRINE] | 8.4 |  | 
35 | NCCc1cc(O)c(O)cc1O [OXIDOPAMINE] | 10.3 |  | 
36 | COc1ccc(Cc2nccc3cc(OC)c(OC)cc23)cc1OC [PAPAVERINE] | 6.25 | 2.93 | 
37 | N#Cc1ccc2c(c1)N(CCCN1CCC(O)CC1)c1ccccc1S2 [PERICIAZINE] | 8.76 |  | 
38 | O=c1[nH]c2ccccc2n1C1CCN(CCCC(c2ccc(F)cc2)c2ccc(F)cc2)CC1 [PIMOZIDE] | 8.63 |  | 
39 | NC(=O)C1(N2CCCCC2)CCN(CCCC(=O)c2ccc(F)cc2)CC1 [PIPAMPERONE] | 8.28 |  | 
40 | CN(C)CCCN1c2ccccc2Sc2ccccc21 [PROMAZINE] | 9.34 |  | 
41 | COc1ccc(CN(CCN(C)C)c2ccccn2)cc1 [PYRILAMINE] | 8.92 |  | 
42 | COC(=O)[C@H]1[C@H]2C[C@@H]3c4[nH]c5cc(OC)ccc5c4CCN3C[C@H]2C[C@@H](OC(=O)c2cc(OC)c(OC)c(OC)c2)[C@@H]1OC [RESERPINE] | 6.6 | 3.72 | 
43 | Cc1nc2sccn2c(=O)c1CCN1CCC(=C(c2ccc(F)cc2)c2ccc(F)cc2)CC1 [RITANSERIN] | 8.2 |  | 
44 | CCN1CCCC1CNC(=O)c1cc(S(N)(=O)=O)ccc1OC (stereo not given) [SULPIRIDE] |  | 0.42 | 
45 | CC(C)(C)c1ccc(C(O)CCCN2CCC(C(O)(c3ccccc3)c3ccccc3)CC2)cc1 (stereo not given) [TERFENADINE] | 8.6 |  | 
46 | CCCCNc1ccc(C(=O)OCCN(C)C)cc1 [TETRACAINE] | 8.39 | 3.73 | 
47 | COc1cccc([C@@]2(O)CCCC[C@@H]2CN(C)C)c1 [TRAMADOL] | 9.37 |  | 
48 | O[C@@](CCN1CCCCC1)(c1ccccc1)C1CCCCC1 [TRIHEXYPHENIDYL] | 8.7 |  | 
49 | Cc1ccc(C(=CCN2CCCC2)c2ccccn2)cc1 [TRIPROLIDINE] | 9.69 | 3.47 | 
